The results in this text go back to patent US20230104936A1, “TRPML MODULATORS” (Casma Therapeutics, Inc., priority 2019, published 2023).

This assay deals with TFEB. The assay is described as follows: TFEB nuclear translocation assay, HeLa wt cells. The class given is cell-based. Particulars: 2 hrs compound treatment, Table 1 does not say HeLa wt or TRPML1 KO. The procedure, abridged: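 HeLa wt, 2 hr compound, 37° C; 4% PFA fix; anti-TFEB (rabbit, 1:200, overnight 4° C) + Alexa 488 secondary, Hoechst. Imaged ×20, 4 fields/well. Readout: nuclear/ring Alexa 488 intensity ratio; AC50.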

Molecules are shown by their SMILES. Where only a bound is given, the exact number is not on record here.

In the case of `COCC1(C)CCN(c2ccccc2NS(=O)(=O)Cc2ccccc2Cl)CC1` [Compound A-601, 1-(2-chlorophenyl)-N-{2-[4-(methoxymethyl)-4-methylpiperidin-1-yl]phenyl}methanesulfonamide], the AC50 (Homo sapiens, HeLa, 2 h) was in the range of 2010 to 8000 nM.

In the case of `CN(C)S(=O)(=O)c1ccc(S(=O)(=O)Nc2cccc(F)c2N2CCC(CN3C4COCC3C4)CC2)cc1` [Compound A-778, N4-3-fluoro-2-[4-(3-oxa-6-azabicyclo[3.1.1]heptan-6-ylmethyl)piperidin-1-yl]phenyl-N1,N1-dimethylbenzene-1,4-disulfonamide], the half-maximal activity concentration (AC50) (Homo sapiens, HeLa, 2 h) is no more than 2000 nM.

`CN(C)S(=O)(=O)c1ccc([S+]([O-])Cc2ccccc2N2CCC(c3ccc(Cl)cc3F)CC2)cc1` (centres unmarked) [Compound A-190, 4-((2-(4-(4-chloro-2-fluorophenyl)piperidin-1-yl)benzyl)sulfinyl)-N,N-dimethylbenzenesulfonamide]: the AC50 (Homo sapiens, HeLa, 2 h) was no more than 2000 nM.

Consider `CN1C(=O)C2(CCN(c3ccccc3NS(=O)(=O)c3ccc(S(=O)(=O)N(C)C)cc3)CC2)c2cccnc21` [Compound A-282, N1,N1-dimethyl-N4-(2-{1′-methyl-2′-oxo-1′,2′-dihydrospiro[piperidine-4,3′-pyrrolo[2,3-b]pyridin]-1-yl}phenyl)benzene-1,4-disulfonamide], for which the AC50 (Homo sapiens, HeLa, 2 h) is 2010 to 8000 nM.

Molecule `COCCN1CC2(CCN(c3ccccc3NS(=O)(=O)c3ccc(S(C)(=O)=O)cc3)CC2)c2ccc(F)cc21` [Compound A-466, N-{2-[6-fluoro-1-(2-methoxyethyl)-1,2-dihydrospiro[indole-3,4′-piperidin]-1′-yl]phenyl}-4-methanesulfonylbenzene-1-sulfonamide] registered an AC50 (Homo sapiens, HeLa, 2 h) of no more than 2000 nM.

In turn, `COCC1(C)CCN(c2ccccc2NS(=O)(=O)c2ccc(S(C)(=O)=O)cc2)CC1` [Compound A-697, 4-methanesulfonyl-N-{2-[4-(methoxymethyl)-4-methylpiperidin-1-yl]phenyl}benzene-1-sulfonamide] registered an AC50 (Homo sapiens, HeLa, 2 h) of 2010 to 8000 nM.

As for `CN(C)S(=O)(=O)c1ccc(S(=O)(=O)Nc2ccccc2N2CCCC3(COC3)C2)cc1` [Compound A-507, N1,N1-dimethyl-N4-(2-{2-oxa-6-azaspiro[3.5]nonan-6-yl}phenyl)benzene-1,4-disulfonamide], the AC50 (Homo sapiens, HeLa, 2 h) is 2010 to 8000 nM.

Turning to `Cc1ccc(F)c(CS(=O)(=O)Nc2ccccc2N2CCC3(CC2)COC(C)(C)C3)c1` [Compound A-679, N-(2-{3,3-dimethyl-2-oxa-8-azaspiro[4.5]decan-8-yl}phenyl)-1-(2-fluoro-5-methylphenyl)methanesulfonamide], the AC50 (Homo sapiens, HeLa, 2 h) was no more than 2000 nM.

Molecule `CN(C)S(=O)(=O)c1ccc(S(=O)(=O)Nc2cccc(F)c2N2CCC(CN3CCC(F)(F)CC3)CC2)cc1` [Compound A-789, N4-(2-{4-[(4,4-difluoropiperidin-1-yl)methyl]piperidin-1-yl}-3-fluorophenyl)-N1,N1-dimethylbenzene-1,4-disulfonamide] registered an AC50 (Homo sapiens, HeLa, 2 h) of no more than 2000 nM.

On to `CC(N1CCN(c2ccccc2NS(=O)(=O)c2ccc(S(C)(=O)=O)cc2)CC1)C(F)(F)F` (centres unmarked) [Compound A-540, 4-methanesulfonyl-N-{2-[4-(1,1,1-trifluoropropan-2-yl)piperazin-1-yl]phenyl}benzene-1-sulfonamide], for which the AC50 (Homo sapiens, HeLa, 2 h) was no more than 2000 nM.

`O=S(=O)(Nc1ccccc1N1CCC(c2ccc(Cl)cc2F)CC1)c1ccc(C(F)(F)F)c(F)c1` [Compound A-158, N-{2-[4-(4-chloro-2-fluorophenyl)piperidin-1-yl]phenyl}-3-fluoro-4-(trifluoromethyl)benzene-1-sulfonamide] registered an AC50 (Homo sapiens, HeLa, 2 h) of no more than 2000 nM.

In the case of `Cc1ccc(S(=O)(=O)Nc2ccccc2N2CC=C(c3ccc(Cl)cn3)CC2)cc1` [Compound A-88, N-(2-{5-chloro-1′,2′,3′,6′-tetrahydro-[2,4′-bipyridin]-1′-yl}phenyl)-4-methylbenzene-1-sulfonamide], the AC50 (Homo sapiens, HeLa, 2 h) lay in the range of 2010 to 8000 nM.

`Cc1ccc([S+]([O-])Cc2ccccc2N2CCC(c3ccc(Cl)cc3F)CC2)cc1` (centres unmarked) [Compound A-145, 4-(4-chloro-2-fluorophenyl)-1-(2-((p-tolylsulfinyl)methyl)phenyl)piperidine] yielded an AC50 (Homo sapiens, HeLa, 2 h) of no less than 10000 nM.

In turn, `CN(C)S(=O)(=O)c1ccc(S(=O)(=O)Nc2ccccc2N2CCC(C(F)F)CC2)cc1` [Compound A-585, N4-{2-[4-(difluoromethyl)piperidin-1-yl]phenyl}-N1,N1-dimethylbenzene-1,4-disulfonamide] displayed an AC50 (Homo sapiens, HeLa, 2 h) of no more than 2000 nM.

`CN(C)S(=O)(=O)c1ccc(S(=O)(=O)Nc2ccccc2N2CCN(C(=O)C3CC(F)(F)C3)CC2)cc1` [Compound A-429, N4-{2-[4-(3,3-difluorocyclobutanecarbonyl)piperazin-1-yl]phenyl}-N1,N1-dimethylbenzene-1,4-disulfonamide] showed a concentration at half-maximal activity (AC50) (Homo sapiens, HeLa, 2 h) of 2010 to 8000 nM.

Turning to `CN(C)S(=O)(=O)c1ccc(S(=O)(=O)Nc2ccccc2N2CCC(N)(c3ccc(Cl)cc3F)CC2)cc1` [Compound A-150, N4-{2-[4-amino-4-(4-chloro-2-fluorophenyl)piperidin-1-yl]phenyl}-N1,N1-dimethylbenzene-1,4-disulfonamide], the AC50 (Homo sapiens, HeLa, 2 h) is no more than 2000 nM.

`CC(C1CCN(c2c(F)cccc2NS(=O)(=O)c2ccc(S(=N)(=O)N(C)C)cc2)CC1)N1C[C@@H](C)O[C@@H](C)C1` (single isomer, unassigned) [Compound A-871A] registered an AC50 of no more than 2000 nM.

Under “Homo sapiens, HeLa, 2 h”, `CC1(C)CC2(CCN(c3ccccc3NS(=O)(=O)c3ccc4c(c3)CC(C)(C)O4)CC2)CO1` [Compound A-635, N-(2-{3,3-dimethyl-2-oxa-8-azaspiro[4.5]decan-8-yl}phenyl)-2,2-dimethyl-2,3-dihydro-1-benzofuran-5-sulfonamide] yielded an AC50 of 2010 to 8000 nM.

`CC(c1cccc(F)c1N1CCC(CN2C[C@H]3C[C@@H](C2)O3)CC1)S(=O)(=O)c1ccc(S(=O)(=O)N(C)C)cc1` (single isomer, unassigned) [Compound A-848] had a half-maximal activity concentration (AC50) (Homo sapiens, HeLa, 2 h) of no more than 2000 nM.

In the case of `CN(C)S(=O)(=O)c1ccc(S(=O)(=O)Nc2ccccc2N2CCC(c3cccc(F)c3C(=O)O)CC2)cc1` [Compound A-358, 2-(1-{2-[4-(dimethylsulfamoyl)benzenesulfonamido]phenyl}piperidin-4-yl)-6-fluorobenzoic acid], the AC50 (Homo sapiens, HeLa, 2 h) was no less than 10000 nM.

`Cc1cnc(N2CCC(CN3CCC(F)(F)CC3)CC2)c(C(C)S(=O)(=O)c2ccc3c(c2)CCC3)c1` (single isomer, unassigned) [Compound A-999, 2-(4-((4,4-difluoropiperidin-1-yl)methyl)piperidin-1-yl)-3-(1-((2,3-dihydro-1H-inden-5-yl)sulfonyl)ethyl)-5-methylpyridine] displayed an AC50 of no more than 2000 nM.

`C[C@H](c1cccc(F)c1N1CCC(C2(N3CCOCC3)CC2)CC1)S(=O)(=O)c1ccc(S(=N)(=O)N(C)C)cc1` (single isomer, unassigned) [Compound A-893] registered an AC50 of no less than 10000 nM.

For the setting “Homo sapiens, HeLa, 2 h”, `CC(Sc1ccc(S(=O)(=O)C(F)F)cc1)c1cccc(F)c1N1CCCCC1` (centres unmarked) [Compound A-971, 1-(2-{1-[(4-difluoromethanesulfonylphenyl)sulfanyl]ethyl}-6-fluorophenyl)piperidine] displayed an AC50 of 2010 to 8000 nM.

Molecule `CC(c1cccc(F)c1N1CCC(CN2C3COCC2C3)CC1)S(=O)(=O)c1ccc(S(=O)(=O)N(C)C)cc1` [Compound A-869, rel-4-[(1R)-1-{3-fluoro-2-[4-({3-oxa-6-azabicyclo[3.1.1]heptan-6-yl}methyl)piperidin-1-yl]phenyl}ethanesulfonyl]-N,N-dimethylbenzene-1-sulfonamide] had an AC50 (Homo sapiens, HeLa, 2 h) of 2010 to 8000 nM.

Where the note is “Homo sapiens, HeLa, 2 h”, `CN(C)S(=O)(=O)c1ccc(S(=O)(=O)Nc2cccc(F)c2N2CCC(N3CCC4(CCOC4)C3)CC2)cc1` (single isomer, unassigned) [Compound A-909, N1-(2-(4-(2-oxa-7-azaspiro[4.4]nonan-7-yl)piperidin-1-yl)-3-fluorophenyl)-N4,N4-dimethylbenzene-1,4-disulfonamide] registered an AC50 of 2010 to 8000 nM.

Under “Homo sapiens, HeLa, 2 h”, `CN(C)S(=O)(=O)c1ccc(S(=O)(=O)Nc2ccccc2N2CCC(CN3CCOCC3)CC2)cc1` [Compound A-554, N1,N1-dimethyl-N4-(2-{4-[(morpholin-4-yl)methyl]piperidin-1-yl}phenyl)benzene-1,4-disulfonamide] had an AC50 of no more than 2000 nM.

`CC(C)(C)C(=O)N1CCN(c2ccccc2NS(=O)(=O)c2ccc(C(C)(C)C(F)(F)F)cc2)CC1` [Compound A-572, N-{2-[4-(2,2-dimethylpropanoyl)piperazin-1-yl]phenyl}-4-(1,1,1-trifluoro-2-methylpropan-2-yl)benzene-1-sulfonamide] registered an AC50 (Homo sapiens, HeLa, 2 h) of 2010 to 8000 nM.

Turning to `Cn1nccc1S(=O)(=O)Nc1cccc(Cl)c1N1CCOCC1` [Compound A-329, N-[3-chloro-2-(morpholin-4-yl)phenyl]-1-methyl-1H-pyrazole-5-sulfonamide], where the note is “Homo sapiens, HeLa, 2 h”, the AC50 is no less than 10000 nM.

As for `CC(C)(C)C(=O)N1CCN(c2ccccc2NS(=O)(=O)c2ccc(S(C)(=O)=O)cc2)CC1` [Compound A-324, N-{2-[4-(2,2-dimethylpropanoyl)piperazin-1-yl]phenyl}-4-methanesulfonylbenzene-1-sulfonamide], under “Homo sapiens, HeLa, 2 h”, the AC50 is no less than 10000 nM.

For `COc1ccc(S(=O)(=O)Nc2ccccc2N2CCN(C(C)C(F)(F)F)CC2)cc1` (centres unmarked) [Compound A-531, 4-methoxy-N-{2-[4-(1,1,1-trifluoropropan-2-yl)piperazin-1-yl]phenyl}benzene-1-sulfonamide], the AC50 (Homo sapiens, HeLa, 2 h) is no more than 2000 nM.

The molecule `CN(C)S(=O)(=O)c1ccc(S(=O)(=O)N(C)c2cc(F)ccc2N2CCC3(CC2)COC(C)(C)C3)cc1` [Compound A-728, N1-(2-{3,3-dimethyl-2-oxa-8-azaspiro[4.5]decan-8-yl}-5-fluorophenyl)-N1,N4,N4-trimethylbenzene-1,4-disulfonamide] displayed an AC50 (Homo sapiens, HeLa, 2 h) of 2010 to 8000 nM.

For the molecule `C[C@@H]1CN(CC2CCN(c3c(F)cccc3NS(=O)(=O)c3ccc(S(=O)(=O)C(F)F)cc3)CC2)C[C@H](C)O1` [Compound A-758, 4-difluoromethanesulfonyl-N-[2-(4-{[(2R,6S)-2,6-dimethylmorpholin-4-yl]methyl}piperidin-1-yl)-3-fluorophenyl]benzene-1-sulfonamide], the AC50 (Homo sapiens, HeLa, 2 h) was no more than 2000 nM.

A word on the AC50: it is the concentration at which the activity in the assay is half-maximal. A high value points to activity only at high concentration.
